Patent publication US9107879B1, “Methods of increasing the cytotoxicity of chemotherapeutic agents with multisubstrate inhibitors of histone, protein-lys, polyamine acetylation, and polyamine metabolism” (Vanderbilt University, priority 2010, dated 2015)

Experiments:
γ-H2A.X in H358 cells = assay: double strand break / gamma-H2A.X Western and co-immunoprecipitation; type: cell-based; settings: 18 hours post-start; 1a 50 μM, 5FU 2 μM, cisplatin 2 μM, camptothecin 5 nM
Procedure: Also shown are controls for no treatment (“c” minus 1a) or treatment with 1a only (“c” plus 1a). Each lane represents 60 μg protein. […] Each lane represents 60 μg protein.
To measure DSB repair, cells were incubated for 1 hour with 10 μM camptothecin to induce DSBs, followed by incubation in the presence or absence of 50 μM 1a. At fixed times, histones were prepared by extraction in 0.2M H2SO4 as described previously and 50 μg extract was analyzed by 12% SDS-PAGE followed Western analysis as described previously, using rabbit polyclonal anti-γ-H2A.X [phosphor ser 139] (Novus Biologicals, Littleton, Colo.) or anti-H3 (Upstate Biotechnology, Inc, Lake Placid, N.Y.). Band intensities were quantitated digitally. To study acetylation of γ-H2A.X, we carried out co-immunoprecipitation analysis using 50 μg extract protein in immunoprecipitation buffer (10 mM sodium phosphate pH 7, 0.15 M NaCl, 0.1% SDS, 1% NP40, 1% sodium deoxycholate, aprotinin, 1 mM PMSF, complete protease inhibitors (Roche) using immobilized anti-acetyl-lysine (Millipore, Temecula, Calif.) in the immunoprecipitation step. The immunoprecipitated material was then analyzed as for Western analysis using anti γ-H2A.X.
Double strand breaks (DSBs) can be formed by a variety of DNA damaging agents, including camptothecin, cisplatin, 5FU, and UVC radiation (Avemann K, et al., 1988, Mol Cell Biol, 8: 3026-34; Bogdanov K V, et al. 1997, Br J Haematol, 98:869-72; Pavon M A, et al., Int J Cancer, 2008, 123:1068-79) implying that DSB repair may play a role in reducing their cellular toxicity. To examine how 1a treatment affects DSB repair in H358 cells we made use of the fact that the histone variant, H2A.X becomes phosphorylated at sites of double strand breaks (denoted γ-H2A.X), and can be detected by immunoblot analysis of acid extracted cells (Rogaku E P, et al., 1999, J Cell Biol, 146:905-16). […] Total H3 levels and H2A.X levels (control) are unaffected by these treatments (FIG. 4B). […]

[1] = tested on: normal GT41F human skin fibroblast cells; assay: [3H]-thymidine incorporation DNA synthesis assay; type: cell-based; settings: 1a 50 μM; camptothecin 5 nM 18 hours
Excerpt: Cells were either labeled immediately before treatment (starting DNA synthesis rate), or subjected to the indicated treatments and then pulsed on successive days until day 4. DNA synthesis is represented as the percent of starting DNA synthesis rate.
The present inventors used a 96-well viability assays as described in Saadatmandi et al (Cancer Gene Therapy (2002) 9:930-9) to examine the effect of the spermidine-CoA inhibitor disclosed previously on DNA synthesis in normal GT41F human skin fibroblast cells, as well as its combined effect with camptothecin. GT41F cells were plated in 96-well plates at 3000 cells per well. […] Following the 6-hour labeling, cells were harvested and incorporation of [^3H]-thymidine was determined by scintillation counting.

## CC[C@@]1(O)C(=O)OCc2c1cc1n(c2=O)Cc2cc3ccccc3nc2-1 [camptothecin]
γ-H2A.X in H358 cells
  γ-H2A.X level, single agent: weakly detectable
[1]
  effect on incorporation of [3H]-thymidine, single agent: virtually no effect
